From patent publication US11541029B2, “High penetration compositions and their applications” (Techfields Pharma Co., Ltd., priority 2008, dated 2023)

What was measured:
[1] = test system: Human Gastric Cancer HGC-27 cell; assay: HGC-27 cell proliferation, MTT assay; assay type: cell-based; details: Homo sapiens, HGC-27, 72 hours, read-out: HGC-27 cell growth inhibition rate
Experimental: The inhibition of cellular proliferation was measured by the modified dimethyl thiazolyl diphenyl tetrazolium salt (MTT) [3-(4,5-dimethylthiazol-2-yl)-2,5-diphenyltetrazolium bromide] assay, based on the ability of live cells to converting thiazolyl blue to dark blue formazan. Approximately 3500 cells of HGC-27 (in 100 μl culture solution) were seeded into 96-well culture plates and were cultured for 16 hours at 37° C. Different concentration solution (100 μl) of Taxol (positive control), chlorambucil, or N,N-diethylaminoethyl 4-[bis(2-chloroethyl)amino]benzenebutyrate.HCl salt (HPC of chlorambucil) were added and incubation continued for 72 hours at 37° C. Then MTT were added and incubation continued at 37° C. for 4 h, and 100 μl DMSO was pipetted to solubilize the formazan product for 30 min at room temperature. The absorbency at 570 nm was measured using Bio-Rad micro-plate reader […].

[2] = test system: human myeloma cell line implanted into mice; assay: Survival of mice with multiple myeloma (Example 110, Study B); assay type: in vivo; details: n=5
Experimental: Study B: For evaluation of antitumor activity, a human myeloma cell line derived from the ascites of a patient with multiple myeloma was implanted into mice. The experiment was carried out on 17 groups of mice. Control group (A, orally), chlorambucil (group B1: 1 mg/kg, orally, group B2, 3 mg/kg, orally, group B3:1 mg/kg, transdermally, and group B4: 3 mg/kg, transdermally), melphalan (group C1: 1 mg/kg, orally, group C2, 3 mg/kg, orally, group C3:1 mg/kg, transdermally, and group C4: 3 mg/kg, transdermally), N,N-diethylaminoethyl 4-[bis(2-chloroethyl)amino]benzenebutyrate.HBr (the HPC of chlorambucil (group D1: 1 mg/kg, orally, group D2, 3 mg/kg, orally, group D3:1 mg/kg, transdermally, and group D4: 3 mg/kg, transdermally), and 4-[bis(2-chloroethyl)amino]-N-acetyl-L-phenylalanine N,N-diethylaminoethyl ester hydrobromide (the HPC of melphalan) (group E1: 1 mg/kg, orally, group E2, 3 mg/kg, orally, group E3:1 mg/kg, transdermally, and group E4: 3 mg/kg, transdermally).

[3] = test system: human myeloma cell line implanted into mice; assay: Survival and weight loss of myeloma mice (Example 111); assay type: in vivo; details: orally; for Weight Loss: day 21; for Life Elongation Rate / None Disease Rate / Survival Period: n=7
From the text: A human myeloma cell line derived from the ascites of a patient with multiple myeloma was implanted into mice. The mice was divided into 11 groups: control group (A, orally), melphalan (B1 and B2, orally), chlorambucil (C1 and C2, orally), N,N-diethylaminoethyl 4-[bis(2-chloroethyl)amino]benzenebutyrate.HBr (D1 and D2, transdermally), 4-[bis(2-chloroethyl)amino]-N-acetyl-L-phenylalanine N,N-diethylaminoethyl ester hydrobromide (E1 and E2, transdermally in 5% aqueous solution), and diethylaminoethyl 4-[bis(2-methylsulfonylethyl)amino]benzenebutyrate.HCl (F1 and F2, transdermally in 5% aqueous solution). The body weight loss of mice was determined on day 21.

[4] = test system: GK rats (SLAC/GK, type 2 diabetes); assay: Anti-diabetes (type II) activity of HPCs of NSAIAs in GK rats; assay type: in vivo; details: 30 mg/kg transdermally once per day, no fasting
Experimental: (§1) A HPC in the present disclosure lowered blood glucose levels in rat models (SLAC/GK, type 2 diabetes, n=7). 30 mg/kg of 8% diethylaminoethyl acetylsalicylate.HCl salt (P-1, in 25% ethanol); 4-acetamidophenyl salicylyldimethylaminobutyrate.HCl (P-6, in 25% ethanol), diethylaminoethyl 5-(2,4-difluorophenyl)acetylsalicylate.5-(2,4-difluorophenyl)acetylsalicylic acid salt (P-8, in 25% ethanol), diethylaminoethyl salicylsalicylate.HCl salt (P-9, in 25% ethanol), diethylaminoethyl salicylate.AcOH(P-10, in 25% ethanol), diethylaminoethyl 5-acetamido-acetylsalicylate.HCl(P-58, in 25% ethanol), diethylaminoethyl acetylsalicylsalicylate. HCl salt (P-59, in 25% ethanol), diethylaminoethyl acetylsalicylsalicylsalicylate. HCl salt (P-60, in 25% ethanol) were administered transdermally to the backs (6 cm^2, fur was shaved) of GK rats (SLAC/GK, 14-16 weeks old) and normal SD rats (SLAC/SD, 14-16 weeks old) once per day (at 8 am) for 6 weeks.
(§2) The blood glucose levels were measured once every 3 days at 4:30 pm (no fasting) from the third week to the sixth week as shown in Table 10a and 10b. […] Moreover, the blood glucose levels of the rats stayed at normal level (6-9 mmol/L, no fasting) after the treatment was stopped for 40 days.

normal SD rats (SLAC/SD) = assay: Blood glucose in normal SD rats treated with HPCs of NSAIAs; assay type: in vivo; details: 30 mg/kg transdermally once per day, no fasting
Experimental: as §1, §2

SLAC/DB/DB obese mice = assay: Blood glucose and blood lipid levels in DB/DB mice; assay type: in vivo; details: 30 mg/kg transdermally once per day
Experimental: HPCs in the present disclosure lowered blood glucose levels and blood lipid levels in mice models (SLAC/DB/DB, obese mice, n=7). 30 mg/kg of 8% diethylaminoethyl acetylsalicylate.HCl salt (P-1, in 25% ethanol); 4-acetamidophenyl salicylyldimethylaminobutyrate.HCl (P-6, in 25% ethanol), diethylaminoethyl 5-(2,4-difluorophenyl)acetylsalicylate.5-(2,4-difluorophenyl)acetylsalicylic acid salt (P-8, in 25% ethanol), diethylaminoethyl salicylsalicylate.HCl salt (P-9, in 25% ethanol), diethylaminoethyl salicylate.AcOH(P-10, in 25% ethanol), diethylaminoethyl 5-acetamido-acetylsalicylate.HCl(P-58, in 25% ethanol), diethylaminoethyl acetylsalicylsalicylate.HCl salt (P-59, in 25% ethanol), diethylaminoethyl acetylsalicylsalicylsalicylate.HCl salt (P-60, in 25% ethanol) were administered transdermally to the backs (4 cm^2,fur was shaved) of DB/DB mice(SLAC/DB/DB, 10-12 weeks old) once per day (at 8 am) for 5 weeks. The blood glucose levels were measured once per week and blood lipid levels were measured once every other week.

[5] = test system: SLAC:NOD-IDDM, type 1 diabetes; assay: Anti-diabetes (type I) activity of HPCs of NSAIAs; assay type: in vivo, mice; details: for blood glucose, Baseline: equal to 20 mg/kg of NSAIAs transdermally twice per day for 7 weeks; for blood glucose, Average: fourth week to seventh week, no fasting, equal to 20 mg/kg of NSAIAs transdermally twice per day
From the text: 10% aqueous solution of diethylaminoethyl acetylsalicylate.acetylsalicylic acid salt (P-1, […]); 4-acetamidophenyl salicylyldimethylaminobutyrate. HCl (P-6), diethylaminoethyl 5-(2,4-difluorophenyl)acetylsalicylate.5-(2,4-difluorophenyl)acetylsalicylic acid salt (P-8), diethylaminoethyl salicylsalicylate.AcOH(P-9), diethylaminoethyl 5-acetamido-acetylsalicylate. HCl (P-58), diethylaminoethyl 2-(ρ-isobutylphenyl) propionate.citric acid (P-59), diethylaminoethyl acetylsalicylsalicylate. acetylsalicylsalicylsalicylic acid salt (P-60) (equal to of 20 mg/kg of NSAIAs) were administered transdermally to the shaved back (about 1.5 cm^2) of mice twice per day (at 8 am and 5 pm) for 7 weeks.
The blood glucose levels were measured once every 3 days at 4:30 pm (no fasting) from the fourth week to the seventh week as shown in Table 11.

O=C(O)CCCc1ccc(N(CCCl)CCCl)cc1 [chlorambucil, reference compound]
inhibition at 0.5 µM ([1]; 0.5 μM): 0.3% | inhibition at 2 µM ([1]; 2.0 μM): 1.6% | inhibition at 5 µM ([1]; 5.0 μM): 12.5% | inhibition at 25 µM ([1]; 25 μM): 31.5% | inhibition at 50 µM ([1]; 50 μM): 39.4% | inhibition at 75 µM ([1]; 75 μM): 41.5% | inhibition at 100 µM ([1]; 100 μM): 53.1% | inhibition at 200 µM ([1]; 200 μM): 62.1% | inhibition at 500 µM ([1]; 500 μM): 81% | Life Elongation Rate ([2]; 1 mg/kg per day, orally): 107% | Survival Period ([2]; 1 mg/kg per day, orally): 48.7 ± 5.3 days | Life Elongation Rate ([2]; 1 mg/kg per day, transdermally): 99% | Survival Period ([2]; 1 mg/kg per day, transdermally): 46.1 ± 3.6 days | Life Elongation Rate ([2]; 3 mg/kg per day, orally): 151% | Survival Period ([2]; 3 mg/kg per day, orally): 68.5 ± 4.2 days | Life Elongation Rate ([2]; 3 mg/kg per day, transdermally): 98% | Survival Period ([2]; 3 mg/kg per day, transdermally): 44.6 ± 3.6 days | Weight Loss ([3]; 1.5 mg/kg per day): 10% | Life Elongation Rate ([3]; 1.5 mg/kg per day): 126% | None Disease Rate ([3]; 1.5 mg/kg per day): 2/7 | Survival Period ([3]; 1.5 mg/kg per day): 54.8 ± 5.5 days | Weight Loss ([3]; 3 mg/kg per day): 17% | Life Elongation Rate ([3]; 3 mg/kg per day): 200% | None Disease Rate ([3]; 3 mg/kg per day): 3/7 | Survival Period ([3]; 3 mg/kg per day): 87.2 ± 6.9 days

CCN(CC)CCOC(=O)c1ccccc1OC(=O)c1ccccc1OC(=O)c1ccccc1OC(C)=O.Cl [P-60, diethylaminoethyl acetylsalicylsalicylsalicylate. HCl salt]
blood glucose, Average (Week 2-5) [4]: 9.3 ± 2.9 mmol/L | blood glucose, Day 1 [4]: 15.9 ± 2.8 mmol/L | blood glucose, Average (Week 2-5) (normal SD rats (SLAC/SD)): 5.7 ± 1.1 mmol/L | blood glucose, Day 1 (normal SD rats (SLAC/SD)): 5.6 ± 1.3 mmol/L | Cholesterol (total), Day 1 (SLAC/DB/DB obese mice): 7.0 ± 0.8 mmol/L | Cholesterol (total), Week 5 (SLAC/DB/DB obese mice): 5.0 ± 0.4 mmol/L | Triglycerides, Day 1 (SLAC/DB/DB obese mice): 4.3 ± 0.5 mmol/L | Triglycerides, Week 5 (SLAC/DB/DB obese mice): 4.3 ± 0.5 mmol/L | blood glucose, Day 1 (SLAC/DB/DB obese mice): 14.8 ± 2.7 mmol/L | blood glucose, Week 5 (SLAC/DB/DB obese mice): 9.0 ± 2.1 mmol/L | blood glucose, Baseline [5]: 17.5 ± 3.3 mmol/L | blood glucose, Average [5]: 8.8 ± 1.9 mmol/L

CC(=O)O.CCN(CC)CCOC(=O)c1ccccc1O [P-10, diethylaminoethyl salicylate.AcOH]
blood glucose, Average (Week 2-5) [4]: 9.1 ± 2.2 mmol/L | blood glucose, Day 1 [4]: 16.7 ± 3.2 mmol/L | blood glucose, Average (Week 2-5) (normal SD rats (SLAC/SD)): 5.7 ± 1.3 mmol/L | blood glucose, Day 1 (normal SD rats (SLAC/SD)): 5.8 ± 1.2 mmol/L | Cholesterol (total), Day 1 (SLAC/DB/DB obese mice): 6.8 ± 0.4 mmol/L | Cholesterol (total), Week 5 (SLAC/DB/DB obese mice): 4.7 ± 0.5 mmol/L | Triglycerides, Day 1 (SLAC/DB/DB obese mice): 4.8 ± 0.9 mmol/L | Triglycerides, Week 5 (SLAC/DB/DB obese mice): 2.3 ± 0.3 mmol/L | blood glucose, Day 1 (SLAC/DB/DB obese mice): 15.1 ± 3.7 mmol/L | blood glucose, Week 5 (SLAC/DB/DB obese mice): 9.2 ± 2.3 mmol/L | blood glucose, Baseline [5]: 18.8 ± 3.4 mmol/L | blood glucose, Average [5]: 8.6 ± 1.8 mmol/L

CCN(CC)CCOC(=O)c1ccccc1OC(=O)c1ccccc1O.Cl [P-9, diethylaminoethyl salicylsalicylate.HCl salt]
blood glucose, Average (Week 2-5) [4]: 9.4 ± 2.7 mmol/L | blood glucose, Day 1 [4]: 16.4 ± 2.3 mmol/L | blood glucose, Average (Week 2-5) (normal SD rats (SLAC/SD)): 5.6 ± 1.2 mmol/L | blood glucose, Day 1 (normal SD rats (SLAC/SD)): 5.5 ± 1.3 mmol/L | Cholesterol (total), Day 1 (SLAC/DB/DB obese mice): 7.7 ± 0.5 mmol/L | Cholesterol (total), Week 5 (SLAC/DB/DB obese mice): 4.9 ± 0.5 mmol/L | Triglycerides, Day 1 (SLAC/DB/DB obese mice): 4.1 ± 0.4 mmol/L | Triglycerides, Week 5 (SLAC/DB/DB obese mice): 2.1 ± 0.3 mmol/L | blood glucose, Day 1 (SLAC/DB/DB obese mice): 14.1 ± 2.5 mmol/L | blood glucose, Week 5 (SLAC/DB/DB obese mice): 8.7 ± 2.3 mmol/L | blood glucose, Baseline [5]: 16.5 ± 3.6 mmol/L | blood glucose, Average [5]: 8.4 ± 1.9 mmol/L

CC(=O)Nc1ccc(OC(=O)c2ccccc2OC(=O)CCCN(C)C)cc1.Cl [P-6, 4-acetamidophenyl salicylyldimethylaminobutyrate.HCl]
blood glucose, Average (Week 2-5) [4]: 9.2 ± 2.7 mmol/L | blood glucose, Day 1 [4]: 16.8 ± 3.0 mmol/L | blood glucose, Average (Week 2-5) (normal SD rats (SLAC/SD)): 5.8 ± 1.1 mmol/L | blood glucose, Day 1 (normal SD rats (SLAC/SD)): 5.7 ± 1.3 mmol/L | Cholesterol (total), Day 1 (SLAC/DB/DB obese mice): 7.0 ± 0.4 mmol/L | Cholesterol (total), Week 5 (SLAC/DB/DB obese mice): 4.9 ± 0.5 mmol/L | Triglycerides, Day 1 (SLAC/DB/DB obese mice): 4.4 ± 0.5 mmol/L | Triglycerides, Week 5 (SLAC/DB/DB obese mice): 2.5 ± 0.3 mmol/L | blood glucose, Day 1 (SLAC/DB/DB obese mice): 14.2 ± 2.0 mmol/L | blood glucose, Week 5 (SLAC/DB/DB obese mice): 9.5 ± 2.8 mmol/L | blood glucose, Baseline [5]: 18.9 ± 4.3 mmol/L | blood glucose, Average [5]: 9.5 ± 2.1 mmol/L

CCN(CC)CCOC(=O)c1cc(NC(C)=O)ccc1OC(C)=O.Cl [P-58, diethylaminoethyl 5-acetamido-acetylsalicylate.HCl]
blood glucose, Average (Week 2-5) [4]: 9.4 ± 3.0 mmol/L | blood glucose, Day 1 [4]: 17.1 ± 2.8 mmol/L | blood glucose, Average (Week 2-5) (normal SD rats (SLAC/SD)): 5.8 ± 1.1 mmol/L | blood glucose, Day 1 (normal SD rats (SLAC/SD)): 5.9 ± 1.2 mmol/L | Cholesterol (total), Day 1 (SLAC/DB/DB obese mice): 7.1 ± 0.3 mmol/L | Cholesterol (total), Week 5 (SLAC/DB/DB obese mice): 5.1 ± 0.6 mmol/L | Triglycerides, Day 1 (SLAC/DB/DB obese mice): 4.9 ± 0.4 mmol/L | Triglycerides, Week 5 (SLAC/DB/DB obese mice): 4.3 ± 0.5 mmol/L | blood glucose, Day 1 (SLAC/DB/DB obese mice): 15.6 ± 2.9 mmol/L | blood glucose, Week 5 (SLAC/DB/DB obese mice): 9.3 ± 2.1 mmol/L | blood glucose, Baseline [5]: 17.9 ± 3.2 mmol/L | blood glucose, Average [5]: 8.1 ± 1.9 mmol/L
